This experiment concerns dengue virus. As to the kind of experiment: Intracellular nucleoside triphosphate concentration needed to inhibit 50% of viral production (NTP50) in PBMC. It is filed as cell-based. As for the experimental part: NTP50 is defined as the concentration of the nucleoside triphosphate (NTP) that will inhibit 50% of viral production. The NTP50 experiment was performed using cryopreserved PBMC as described above in the Dengue EC50 determination section. Briefly, PBMC was thawed and incubated in RPMI medium containing 2% Fetal Bovine serum (FBS), 1% Penicillin/Streptomycin supplemented with various concentration of a representative compound of the present invention (e.g., Example 2) up to 100 μM. After the intracellular conversion of Example 2 into corresponding nucleoside triphosphate reached steady state (24 hours at 37° C. in the incubator), the cells were spun down, washed with 0.9% NaCl solution and lyzed in RIPA buffer (50 mM Tris pH 7.5, 150 mM NaCl, 1% NP40) containing with protease and phosphotase inhibitor. The cells were further incubated at room temperature for complete lysis of the cells and the cell debris spun down at 13,000 g in at 4° C. for 20 minutes. The lysate was transferred into […] and the concentration of the nucleoside triphosphate was measured. The concentration of the nucleoside triphosphate was then plotted against the concentration of Example 2 and a curve of the concentration of the nucleoside triphosphate vs incubated Example 2 was generated using Michaelis-Menten Kinetics with the formula Y=A[Example 2]/B+[Example 2] where Y is the concentration of the nucleoside triphosphate and [Example 2] is the concentration of the compound Example 2. A and B were constants determined by best fitting. By EC50 of [Example 2] in the equation, the intracellular concentration of nucleoside triphosphate which corresponds to 50% reduction of the virus (NTP50) can be determined.
Since all compounds of the present invention would be converted to the same nucleoside triphosphate intracellularly (the structure of NTP is shown below), the NTP50 of all compounds of the present invention would be the same regardless which compound was used in the experiment. NTP50 for the compound Example 2 was measured to be 0.0016 μM in PBMC lysate from 1 million cells with 100 μL of lysis buffer. The Mean Corpuscular Volume of PBMC is approximately 0.3×10^−6 μL/per cell=0.3 μL/1 million cells. By using the literature of Simiele, M. et al. Antimicrob. Agents Chemother. 2011 55, 2976-2978, NTP50=0.0016×(100/0.3)=0.53 μM/1 million cells=0.53×0.3/1.0×10^6=0.159×10^−6 μmol/1 million cells. Thus, from the calculation, the intracellular nucleoside triphosphate concentration needed to inhibit 50% of viral production (NTP50) is around ˜200 fmol/1 million cells.

SMILES strings stand for the structures.

This is an account of results in patent publication US20140205566A1, “CYCLIC NUCLEUOSIDE DERIVATIVES AND USES THEREOF” (NOVARTIS AG, priority 2012, published 2014).

For `CCOc1nc(N)nc2c1ncn2[C@@H]1O[C@@H]2CO[P@@](=O)(N[C@@H](C)C(=O)OC(C)C)O[C@H]2[C@@]1(C)F` [Example 2, (S)-isopropyl 2-(((2S,4aR,6R,7R,7aR)-6-(2-amino-6-ethoxy-9H-purin-9-yl)-7-fluoro-7-methyl-2-oxidotetrahydro-4H-furo[3,2-d][1,3,2]dioxaphosphinin-2-yl)amino)propanoate], the NTP50 is, setting by setting: (in PBMC lysate from 1 million cells with 100 μL of lysis buffer) 0.0016 µM; (intracellular amount, calculated) 0.159×10^−6 μmol/1 million cells; (intracellular amount, rounded from the calculation) roughly 200 fmol/1 million cells; (intracellular, corrected with PBMC volume 0.3 μL/1 million cells) 0.53 μM/1 million cells.
